The target in one data set is T1, Thymidine phosphorylase (Homo sapiens, UniProt P19971).
T1 sequence (P19971 whole entry): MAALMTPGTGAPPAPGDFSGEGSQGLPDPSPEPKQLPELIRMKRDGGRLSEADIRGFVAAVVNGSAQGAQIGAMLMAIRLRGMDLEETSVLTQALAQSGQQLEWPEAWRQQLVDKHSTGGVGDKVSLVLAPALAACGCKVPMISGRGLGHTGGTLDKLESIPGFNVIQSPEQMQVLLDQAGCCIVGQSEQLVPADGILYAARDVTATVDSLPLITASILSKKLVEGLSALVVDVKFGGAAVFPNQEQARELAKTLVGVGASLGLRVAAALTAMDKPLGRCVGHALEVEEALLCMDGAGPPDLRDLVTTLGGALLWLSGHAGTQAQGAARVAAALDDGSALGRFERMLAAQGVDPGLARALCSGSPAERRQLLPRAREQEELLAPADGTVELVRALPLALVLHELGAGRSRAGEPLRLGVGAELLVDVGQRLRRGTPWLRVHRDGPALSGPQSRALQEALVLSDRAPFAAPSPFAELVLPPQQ

A short description of data set [1]: Stability in water assessed as parent pure compound remaining at 1 mg measured within 10 days by HPLC analysis (reference value: 95%). The settings on record: read-out: Stability. It is filed as physicochemical.
For data set [2], the system named is NIH3T3. The data set can be described thus: Cytotoxicity against mouse 3T3 cells at 50 uM by SRB assay. It is filed as cell-based. The settings on record: nih3t3, 50 µM.
Data set [3] in a line: Stability in bovine serum assessed as parent pure compound remaining at 1 mg measured within 10 days by HPLC analysis. It is filed as ADME, cell-free, Bos taurus. The settings on record: cattle, 240 h.
The subject of data set [4] is NIH3T3. The data set can be described thus: Cytotoxicity against mouse 3T3 cells by SRB assay. It counts as functional, cell-based.
Substrate in data set [5]: Cc1cc(=O)[nH]c(=O)n1/C(=N\O)c1ccc(Cl)c(Cl)c1
Particulars: Homo sapiens.

Regarding `O=c1[nH]c(=O)n(/C(=N/O)c2ccc(Cl)cc2)cc1I`, the IC50 (as a rule, the concentration that inhibits the measured activity by half) on Thymidine phosphorylase was 15.6 µM.

`Cc1cc(=O)[nH]c(=O)n1/C(=N\O)c1ccc(Cl)c(Cl)c1`: the remaining at 240 h in data set [1] was determined as 87%. For the same molecule, the Activity entry in the data set on NIH3T3 [2] was “Non-Toxic”. The Stability result in data set [3] is “Stable”. This molecule also gave a concentration for half-maximal inhibition (IC50) on Thymidine phosphorylase of 0.12 µM.

On Thymidine phosphorylase, `Cc1cc(=O)[nH]c(=O)n1/C(=N\O)c1ccc(F)cc1` yielded a half-maximal inhibitory concentration (IC50) of 44.1 µM.

`Cc1cc(=O)[nH]c(=O)n1/C(=N\O)c1ccccc1` gave an IC50 on Thymidine phosphorylase of 21.4 µM.

`Cc1cc(=O)[nH]c(=O)n1/C(=N\O)c1ccc(Cl)cc1`: the Activity result with NIH3T3 [2] was “Non-Toxic”. Also, the midpoint of inhibition on Thymidine phosphorylase, the IC50, lay at 1.4 µM.

Consider `Cc1ccc(/C(=N/O)n2c(C)cc(=O)[nH]c2=O)cc1`, for which the Activity result with NIH3T3 [2] is recorded as “Non-Toxic”. For the same molecule, the midpoint of inhibition on Thymidine phosphorylase, the IC50, lay at 7.2 µM.

`Cc1cc(=O)[nH]c(=O)n1/C(=N\O)c1cccs1` yielded an IC50 against Thymidine phosphorylase of 39.9 µM.

Turning to `COc1cccc(/C(=N/O)n2c(C)cc(=O)[nH]c2=O)c1`, on Thymidine phosphorylase, the IC50 came to 25.1 µM.

On to `Cc1cccc(/C(=N/O)n2c(C)cc(=O)[nH]c2=O)c1`, for which the concentration for half-maximal inhibition (IC50) against Thymidine phosphorylase was found to be 15.9 µM.

Molecule `Cc1cc(=O)[nH]c(=O)n1/C(=N\O)c1ccc(Br)cc1` registered a half-maximal inhibitory concentration (IC50) on Thymidine phosphorylase of 2.7 µM.

In the case of `Cc1cc(=O)[nH]c(=O)n1/C(=N\O)c1ccccc1F`, at Thymidine phosphorylase, it took 49.3 µM to reach half-maximal inhibition (IC50).

For the molecule `Cc1ccc(/C(=N\O)n2cc(I)c(=O)[nH]c2=O)cc1`, the IC50 at Thymidine phosphorylase worked out at 22.5 µM.

In the data set with NIH3T3 [4], `C[C@@H]1C[C@@H]([C@H](O)CC2CC(=O)NC(=O)C2)C(=O)[C@@H](C)C1` [CYCLOHEXIMIDE] showed an IC50 of 0.3 µM.

`COc1ccc(/C(=N/O)n2c(C)cc(=O)[nH]c2=O)cc1` came in with a 50% inhibitory concentration (IC50) at Thymidine phosphorylase of 16.5 µM.

Turning to `O=c1[nH]c(=O)n(/C(=N/O)c2ccccc2)cc1I`, the IC50 against Thymidine phosphorylase was determined as 37.3 µM.

On Thymidine phosphorylase, `CCc1ccc(/C(=N\O)n2cc(I)c(=O)[nH]c2=O)cc1` gave a half-inhibitory concentration (IC50) of 10.7 µM.

As for `COc1cccc(/C(=N\O)n2cc(I)c(=O)[nH]c2=O)c1`, at Thymidine phosphorylase, half-maximal inhibition (IC50) was put at 33.4 µM.

Take `CO/N=C(\c1ccccc1)n1c(C)cc(=O)[nH]c1=O`: the IC50 against Thymidine phosphorylase is 85.6 µM.

On Thymidine phosphorylase, `Cc1cc(=O)[nH]c(=O)n1/C(=N\O)c1cccc(F)c1` came in with an IC50 of 41.2 µM.

For the molecule `CCc1ccc(/C(=N/O)n2c(C)cc(=O)[nH]c2=O)cc1`, the Activity entry in the data set with NIH3T3 [2] was “Non-Toxic”. The molecule also gave a half-inhibitory concentration (IC50) against Thymidine phosphorylase of 3.4 µM.

With `O=c1[nH]c(=O)n(/C(=N/O)c2ccccc2F)cc1I`, the IC50 on Thymidine phosphorylase came out at 53.7 µM.

As to `Cc1cc(=O)[nH]c(=O)n1C(=O)c1ccccc1`, at Thymidine phosphorylase, it took 92.4 µM to reach half-maximal inhibition (IC50).

Turning to `COc1ccc(/C(=N\O)n2cc(I)c(=O)[nH]c2=O)cc1`, the concentration for half-maximal inhibition (IC50) against Thymidine phosphorylase worked out at 25.2 µM.

Regarding `O=c1[nH]c(=O)n(/C(=N/O)c2ccc(F)cc2)cc1I`, half-maximal inhibition at Thymidine phosphorylase (IC50) required 41.3 µM.

B1: Thymidine phosphorylase (Homo sapiens), P19971 (protein)
chain: T1 sequence (P19971 whole entry)
With B1, in data set [5], the Michaelis-Menten constant (Km) (commonly the substrate concentration at which the rate is half of its maximum) was 2000 µM.

(Values after ChEMBL document CHEMBL4251602, “Synthesis and biological evaluation of novel 1-(aryl-aldehyde-oxime)uracil derivatives as a new class of thymidine phosphorylase inhibitors” (Eur J Med Chem, 2018).)
